Read-outs that look alike come from different tables or passages of the source.
Tests used:
[1] = system: HCT-116 cells; test: MTS cytotoxicity assay, HCT-116; conditions: for IC50: read-out: IC50 (μM) HCT-116; for selectivity: ratio of cytotoxicity against 293T cells over cytotoxicity against HCT-116 cells
Procedure: (§3) HCT-116 cells were cultured in McCoy's 5a Modified Medium (Gibco, USA). […] Both media contain 10% fetal bovine serum (Gibco, USA) and 1% penicillin–streptomycin (Gibco, USA). Cells were maintained in incubator (Thermo Fisher, USA) supplied with 5% CO2 at 37°C. Only cells in logarithmic phase were used in all following experiments.
(§4) In brief, cells were seeded into 96-well plate (Corning, USA) with a density of 3000 cells/well for 24 h, and then treated with tested compounds at various concentrations for 72 h.

[2] = system: 293T cells; test: MTS cytotoxicity assay, 293T (model of normal cells); conditions: read-out: IC50 (μM) 293T
Procedure: as §3, §4

[3] = system: HCT-116 cells; test: Live cell imaging of confluence area (Incucyte); type: cell-based, human
Procedure: (§1) Thus, it was further studied to understand its underlying antiproliferation mechanism. The confluence areas of HCT-116 cells treated with various concentrations of compound 8d were detected by a live cell analysis imaging system.
Cells were seeded into 24-well plate (1 × 10^4 cells well^−1) for 24 h. Different concentrations of compound 8d were added to treat cells. Time-lapse photography of cells was recorded by Incucyte system. The confluences relative to total well area were calculated using a module of the cell confluence area analysing.

[4] = system: HCT-116 cells; test: Colony formation assay; type: cell-based, human; conditions: pre-treatment 24 h with various concentrations, 9 days culture after withdrawal
Procedure: as §1
HCT-116 cells were seeded in 6-well plates at a density of 300 cells per well and cultured overnight, and then treated with various concentrations of compound 8d for 24 h. Cells were continuously cultured for 9 days after drug withdrawal. Finally, 1% crystal violet was used to stain cells after fixing with 4% paraformaldehyde, and the visible colonies were recorded by the microscope and counted manually using imageJ.

[5] = system: HCT-116 cells; test: Hoechst 33258 staining; type: cell-based, human; conditions: 5 µM, 48 or 72 h
Procedure: (§2) Next, the type of cell death induced by compound 8d was investigated. […] Annexin V/PI staining assay were carried out to analyse the apoptotic rate of HCT-116 cells.
HCT-116 cells were seeded in coverslips for 24 h, and then compound 8d was incubated at a concentration of 5 µM for 48 or 72 h. Cells were incubated with Hoechst 33258 (Sigma, USA) in the dark at room temperature for 30 min after being fixed with 4% paraformaldehyde. The nuclear morphology of apoptosis was observed by fluorescence microscope (Olympus, Japan).

[6] = system: HCT-116 cells; test: TUNEL assay; type: cell-based, human; conditions: 5 µM, 72 h
Procedure: as §2
TdT-UTP nick end-labelling (TUNEL) assay was used to detect the apoptotic cells by in situ cell death detection kit (Roche, Germany) according to the manufacturer's instruction. Briefly, HCT-116 cells were seeded on coverslips and cultured overnight, following treatment with compound 8d (5 µM) for 72 h, then fixed with 4% paraformaldehyde for 30 min and permeabilized with 0.1% Triton X-100 for 2 min on ice. TUNEL reaction mixture was applied to the cells in an atmosphere for 1 h at 37°C in the dark, following with converter-POD and DAB substrate treatment. Samples were detected by a microscope (Olympus, Japan).

[7] = system: HCT-116 cells; test: Annexin V staining in living cells; type: cell-based, human; conditions: 5 µM, 72 h
Procedure: as §2
Cells that seed on coverslips were treated with compound 8d (5 µM) for 72 h. Annexin V-FITC was used to target exposed phosphatidylserine which is a marker of early apoptosis. The nucleus of living cells was labelled by Hoechst 33258. The cells were observed by fluorescence microscope (Olympus, Japan).

[8] = system: HCT-116 cells; test: Annexin V/PI double staining, flow cytometry; type: cell-based, human; conditions: 2.5 and 5 µM
Procedure: as §2
Cells were seeded in 6-well plates with a density of 5 × 10^5 cells per well and then treated with various concentrations of compound 8d (0 µM, 2.5 µM and 5 µM) for 48 h. Cells were collected and stained with annexin V and PI for 20 min, and then detected by flow cytometer (BD, USA) to analyse the apoptotic cell distribution. Living cells (annexin V^−/PI^−), early apoptotic cells (annexin V^+/PI^−), late apoptotic cells (annexin V^+/PI^+) and necrotic cells (annexin V^−/PI^+) were calculated in the Cell Quest software (BD, USA).

[9] = MTS assay, 72 h treatment, mean ± s.d.

SMILES	IC50 ([1]; Homo sapiens, HCT-116, 72 h)	selectivity [1]	IC50 ([2]; Homo sapiens, HEK-293T, 72 h)	other results
CC(=O)OC[C@H]1OC(OC(C)=O)[C@H](n2cc(COCc3ccc([N+](=O)[O-])cc3)nn2)[C@@H](OC(C)=O)[C@@H]1OC(C)=O (stereo partly drawn) [Compound 8i, 1-(1,3,4,6-Tetra-O-acetyl-D-glucopyranosyl)-4-(4-nitrobenzene)hydryloxymethyl-[1,2,3]-triazole]	17.3 ± 3.86 µM	0.46	8 ± 0.77 µM	
CC(=O)OC[C@H]1OC(OC(C)=O)[C@H](n2cc(COCc3ccc(C(F)(F)F)cc3)nn2)[C@@H](OC(C)=O)[C@@H]1OC(C)=O (stereo partly drawn) [8 h, 1-(1,3,4,6-Tetra-O-acetyl-D-glucopyranosyl)-4-(4-trifluoromethylbenzene)hydryloxymethyl-[1,2,3]-triazole]	14.3 ± 2.18 µM	0.42	6.09 ± 0.42 µM	
O=c1[nH]cc(F)c(=O)[nH]1 [Compound 5-FU, 5-Fluorouracil, reference compound]	3.62 ± 1.22 µM	2.52	9.13 ± 1.63 µM	
CC(=O)OC[C@H]1OC(OC(C)=O)[C@H](N)[C@@H](OC(C)=O)[C@@H]1OC(C)=O (stereo partly drawn) [AOAG, reference compound]				IC50 [1, 9]: > 200 µM; IC50 [2, 9]: > 200 µM
CC(=O)OC[C@H]1OC(OC(C)=O)[C@H](n2cc(COCc3ccc(Cl)cc3)nn2)[C@@H](OC(C)=O)[C@@H]1OC(C)=O (stereo partly drawn) [Compound 8f, 1-(1,3,4,6-Tetra-O-acetyl-D-glucopyranosyl)-4-(4-chlorobenzene)hydryloxymethyl-[1,2,3]-triazole]	7.04 ± 0.06 µM	3.18	22.41 ± 0.05 µM	
CC(=O)OC[C@H]1OC(OC(C)=O)[C@H](n2cc(COCc3ccc(F)cc3)nn2)[C@@H](OC(C)=O)[C@@H]1OC(C)=O (stereo partly drawn) [Compound 8e, 1-(1,3,4,6-Tetra-O-acetyl-D-glucopyranosyl)-4-(4-fluorobenzene)hydryloxymethyl-[1,2,3]-triazole]	4.17 ± 0.06 µM	1.94	8.1 ± 0.08 µM	
CC(=O)OC[C@H]1OC(OC(C)=O)[C@H](n2cc(COCc3ccc(C)cc3)nn2)[C@@H](OC(C)=O)[C@@H]1OC(C)=O (stereo partly drawn) [Compound 8c, 1-(1,3,4,6-Tetra-O-acetyl-D-glucopyranosyl)-4-(4-methylbenzene)hydryloxymethyl-[1,2,3]-triazole]	6.4 ± 0.2 µM	3.06	19.57 ± 0.13 µM	
CC(=O)OC[C@H]1OC(OC(C)=O)[C@H](n2cc(COCc3ccc(Br)cc3)nn2)[C@@H](OC(C)=O)[C@@H]1OC(C)=O (stereo partly drawn) [8 g, 1-(1,3,4,6-Tetra-O-acetyl-D-glucopyranosyl)-4-(4-bromobenzene)hydryloxymethyl-[1,2,3]-triazole]	4.55 ± 0.23 µM	2.56	11.7 ± 0.16 µM	
CC(=O)OC[C@H]1OC(OC(C)=O)[C@H](N=[N+]=[N-])[C@@H](OC(C)=O)[C@@H]1OC(C)=O (stereo partly drawn) [Compound 4, 1,3,4,6-Tetra-O-acetyl-2-azido-2-deoxy-D-glucose, reference compound]	97.5 ± 1.58 µM	0.48	46.9 ± 2.93 µM	
COc1ccc(COCc2cn([C@H]3C(OC(C)=O)O[C@H](COC(C)=O)[C@@H](OC(C)=O)[C@@H]3OC(C)=O)nn2)cc1 (stereo partly drawn) [Compound 8d, 1-(1,3,4,6-Tetra-O-acetyl-D-glucopyranosyl)-4-(4-methoxybenzene)hydryloxymethyl-[1,2,3]-triazole]	2.88 ± 0.32 µM	10.89	31.35 ± 0.1 µM	proliferation of HCT-116 cells (confluence area) ([3]; 10 µM, for at least 72 h): completely inhibited; proliferation of HCT-116 cells (confluence area), dose dependence ([3]; various concentrations): dose-dependently inhibited the proliferation; colony formation of HCT-116 [4]: inhibited the colony formation of HCT-116 by a dose-dependent manner; apoptotic DNA fragmentation, Hoechst 33258 staining [5]: Apoptotic DNA fragmentation; DNA fragmentation, TUNEL assay [6]: DNA fragmentation emerged; Annexin V-FITC staining on cellular membranes of living cells [7]: Annexin-V-positive staining emerged on cellular membranes; induction of apoptosis, Annexin V/PI assay (in words) [8]: dose-dependently induced early apoptosis and late apoptosis; cytotoxicity / antiproliferation activity towards HCT-116 (in words) ([1]; MTS assay): comparable to 5-FU
CC(=O)OC[C@H]1OC(OC(C)=O)[C@H](n2cc(CO)nn2)[C@@H](OC(C)=O)[C@@H]1OC(C)=O (stereo partly drawn) [Compound 8a, 1-(1,3,4,6-Tetra-O-acetyl-D-glucopyranosyl)-4-hydroxymethyl-[1,2,3]-triazole]	> 50 µM		> 50 µM	cytotoxicity / antiproliferation activity towards HCT-116 (in words) ([1]; MTS assay): fairly weak
OCc1ccccc1 [Compound 6b, reference compound]	> 200 µM		> 200 µM	
